# Experimental data from paper PMC8537277 (Pharmaceuticals, 2021).
# Read-outs that look alike come from different tables or passages of the source. Where a SMILES comes first, the peptide text is derived from it.
# Assays:
# [1] = system: A/Parma/24/09 H1N1 oseltamivir-resistant virus
# [2] = system: A/Parma/24/09 H1N1 oseltamivir-resistant virus; settings: reference peptides; ref Scala et al. (2017) [14]; read-out: HI Titer (IC50) A/Parma/24/09 H1N1; cited from earlier work
# [3] = A/Parma/24/09 oseltamivir-resistant virus, 1 h
SMILES,"IC50 [1, 3] [pM]",IC50 [2] [nM],also measured
"CC(=O)N[C@@H](CO)C(=O)N[C@@H](C)C(=O)N[C@@H](Cc1c[nH]cn1)C(=O)N[C@@H](CO)C(N)=O [Peptide 4, Ac-SAHS-NH2] (Ac-SAHS-NH2)",,,"IC50 ([1]; read-out: HI Titer (IC50) A/Parma/24/09 H1N1, 50% inhibition of virus-induced hemagglutination, N.D. = not detectable at maximum tested concentration 12.5 × 10^3 nM): 500 pM"
CC(=O)N[C@@H](CO)C(=O)N[C@@H](CCCCN)C(=O)N[C@@H](C)C(=O)N[C@@H](CO)C(N)=O [Peptide 5] (Ac-SKAS-NH2),2.9,,
"CC(=O)N[C@@H](CO)C(=O)N[C@@H](CC(C)C)C(=O)N[C@@H](CC(=O)O)C(=O)N[C@@H](CS)C(N)=O [Peptide 2, Ac-SLDC-NH2] (Ac-SLDC-NH2)",,6,
CC(=O)N[C@@H](CO)C(=O)N[C@@H](C)C(=O)N[C@@H](CC(=O)O)C(=O)N[C@@H](CS)C(N)=O [Peptide 8] (Ac-SADC-NH2),0.0022,,
"CC(=O)N[C@@H](CO)C(=O)N[C@@H](CCCCN)C(=O)N[C@@H](Cc1c[nH]cn1)C(=O)N[C@@H](CO)C(N)=O [Peptide 1, Ac-SKHS-NH2] (Ac-SKHS-NH2)",,1.5,
CC(=O)N[C@@H](CO)C(=O)N[C@@H](CC(C)C)C(=O)N[C@@H](CC(=O)O)C(=O)N[C@@H](C)C(N)=O [Peptide 10] (Ac-SLDA-NH2),6100,,
